US11040980B2, “Substituted pyrazolo[3,4-d]pyrimidines as kinase inhibitors” (PRINCIPIA BIOPHARMA INC., priority 2012, dated 2021)

Target: protein target (Homo sapiens (Human), UniProt Q06187)
Assay: Reversibility of binding (compound in solution before and after perturbation of target, HPLC-MS/MS)
Details: target in native (folded) state, target in excess of compound
Procedure: The following approach was developed to differentiate compounds that form irreversible covalent bond with their targets, such as non-cyano containing acrylamide compounds, from compound that form reversible covalent bond i.e., compounds and/or pharmaceutically acceptable salts of the present disclosure. […] The reactions were then treated with perturbations including both denaturation with 5 M guanidine hydrochloride and digestion with trypsin, disrupting proper folding of the target. […] The concentration of compound in solution was assessed both preceding and following perturbation using high performance liquid chromatography (HPLC) coupled to tandem mass spectrometry.

protein target, sequence (Q06187 whole entry): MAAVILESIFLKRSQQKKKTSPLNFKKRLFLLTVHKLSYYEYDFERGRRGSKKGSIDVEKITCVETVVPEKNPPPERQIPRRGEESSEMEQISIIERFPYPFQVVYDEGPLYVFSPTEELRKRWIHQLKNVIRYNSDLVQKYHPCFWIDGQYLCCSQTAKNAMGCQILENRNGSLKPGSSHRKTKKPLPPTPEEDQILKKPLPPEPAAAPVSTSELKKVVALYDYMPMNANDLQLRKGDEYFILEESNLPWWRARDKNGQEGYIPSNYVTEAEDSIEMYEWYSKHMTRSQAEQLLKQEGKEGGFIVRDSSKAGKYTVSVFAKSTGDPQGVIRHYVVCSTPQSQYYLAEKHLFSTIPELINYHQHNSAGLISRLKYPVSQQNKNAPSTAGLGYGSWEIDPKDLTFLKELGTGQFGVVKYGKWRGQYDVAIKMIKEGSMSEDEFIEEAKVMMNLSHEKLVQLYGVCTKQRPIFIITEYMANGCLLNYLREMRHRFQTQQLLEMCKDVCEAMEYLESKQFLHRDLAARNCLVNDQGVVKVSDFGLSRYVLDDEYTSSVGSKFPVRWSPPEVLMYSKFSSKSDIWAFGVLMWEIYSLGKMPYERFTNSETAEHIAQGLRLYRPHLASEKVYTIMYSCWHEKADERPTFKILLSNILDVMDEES

- Compound in solution in the native state?: no
SMILES: CN(C1COC1)C(C)(C)C=C(C#N)C(=O)N1CCC[C@H]1Cn1nc(-c2ccc(Oc3ccccc3)cc2F)c2c(N)ncnc21 [Example 10, 2-[(2S)-2-[[4-amino-3-(2-fluoro-4-phenoxy-phenyl)pyrazolo[3,4-d]pyrimidin-1-yl]methyl]pyrrolidine-1-carbonyl]-4-methyl-4-[methyl(oxetan-3-yl)amino]pent-2-enenitrile]
